According to US10449182B2 (The Regents of the University of California, priority 2012, dated 2019):

Columns and labels:
p21 [1] = test: p21 levels by immunoblotting in ACHN and/or 786-O cells; format: cell-based, human; conditions: 24 h of culture with compound, immunoblot; further: key: + denotes inhibition of p21 secretion or the absence of p21; − denotes the presence of p21
Protocol: Cells harvested after growth to confluence in 10% serum-containing media and treatment with compounds of the invention were washed with phosphate buffered saline (PBS) and lysed in lysis buffer composed of 50 mM HEPES, 1% Triton X-100, 10 mM sodium pyrophosphate, 100 mM sodium fluoride and 4 mM EDTA at 4° C. Cell lysates were pelleted. Supernatants were electrophoresed and immunoblotted. Membranes were blocked in 5% nonfat dry milk for 30 min at room temperature and probed with p21 antibody. Membranes were then probed with horseradish peroxidase tagged anti-mouse or anti-rabbit IgG antibodies (diluted 3:20,000 and 3:10,000 in 5% nonfat dry milk, respectively) for 2 h at room temperature. Signal was detected using enhanced chemiluminescence (ECL) solutions.

Raf-1 = target: T1, Raf-1 (Homo sapiens, UniProt P04049); test: Recombinant Raf kinase inhibition (ADP-Glo Kinase Assay), Raf-1; format: biochemical; conditions: 10 nM Raf kinase, 1 μM MEK-1, 10 μM ATP, 22° C., 1 hour
T1 construct: Full length recombinant Raf-I and b-Raf (V600E) kinases; purchased US Biological (Swampscott, Mass.)
Protocol: (§1) All assays were performed using 10 nM Raf kinase, 1 μM MEK-1, 10 μM ATP, at 22° C. for 1 hour. Inhibitors were dissolved in DMSO and IC50 values were obtained by measuring the change in the ADP production (luminescent signal intensity) at various inhibitor concentrations as compared to the control. Individual data sets were performed in duplicate and each IC50 value was determined from three separate experiments. The data were fit to a saturation curve using KaleidaGraph graphing program (Synergy Software) to determine the IC50 values.

human sEH = target: T2, human sEH (Homo sapiens, UniProt P34913); test: Inhibitory activity against human sEH; format: biochemical; conditions: read-out: % Inhibition (IC50) Human sEH
T2 sequence (P34913 1-555): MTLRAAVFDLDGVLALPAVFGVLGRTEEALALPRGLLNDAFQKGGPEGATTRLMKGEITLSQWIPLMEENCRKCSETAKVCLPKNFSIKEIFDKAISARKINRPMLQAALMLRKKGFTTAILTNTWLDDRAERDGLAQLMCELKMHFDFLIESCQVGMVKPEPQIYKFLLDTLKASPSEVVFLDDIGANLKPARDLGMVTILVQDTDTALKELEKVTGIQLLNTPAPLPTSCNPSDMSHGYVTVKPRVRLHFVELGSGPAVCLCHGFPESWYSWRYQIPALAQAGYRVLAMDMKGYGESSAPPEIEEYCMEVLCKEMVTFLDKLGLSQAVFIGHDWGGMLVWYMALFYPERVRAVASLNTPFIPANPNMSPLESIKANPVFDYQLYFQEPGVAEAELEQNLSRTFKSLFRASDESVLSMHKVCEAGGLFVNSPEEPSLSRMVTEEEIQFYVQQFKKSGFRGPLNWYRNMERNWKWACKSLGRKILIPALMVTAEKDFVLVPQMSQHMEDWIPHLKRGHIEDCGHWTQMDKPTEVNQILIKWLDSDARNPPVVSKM

b-Raf (V600E) = target: T3, b-Raf (V600E) (Homo sapiens, UniProt P15056, V600E); test: Recombinant Raf kinase inhibition (ADP-Glo Kinase Assay), b-Raf (V600E); format: biochemical; conditions: 10 nM Raf kinase, 1 μM MEK-1, 10 μM ATP, 22° C., 1 hour
T3 construct: Full length recombinant Raf-I and b-Raf (V600E) kinases; purchased US Biological (Swampscott, Mass.)
T3 sequence (P15056 whole entry V600E): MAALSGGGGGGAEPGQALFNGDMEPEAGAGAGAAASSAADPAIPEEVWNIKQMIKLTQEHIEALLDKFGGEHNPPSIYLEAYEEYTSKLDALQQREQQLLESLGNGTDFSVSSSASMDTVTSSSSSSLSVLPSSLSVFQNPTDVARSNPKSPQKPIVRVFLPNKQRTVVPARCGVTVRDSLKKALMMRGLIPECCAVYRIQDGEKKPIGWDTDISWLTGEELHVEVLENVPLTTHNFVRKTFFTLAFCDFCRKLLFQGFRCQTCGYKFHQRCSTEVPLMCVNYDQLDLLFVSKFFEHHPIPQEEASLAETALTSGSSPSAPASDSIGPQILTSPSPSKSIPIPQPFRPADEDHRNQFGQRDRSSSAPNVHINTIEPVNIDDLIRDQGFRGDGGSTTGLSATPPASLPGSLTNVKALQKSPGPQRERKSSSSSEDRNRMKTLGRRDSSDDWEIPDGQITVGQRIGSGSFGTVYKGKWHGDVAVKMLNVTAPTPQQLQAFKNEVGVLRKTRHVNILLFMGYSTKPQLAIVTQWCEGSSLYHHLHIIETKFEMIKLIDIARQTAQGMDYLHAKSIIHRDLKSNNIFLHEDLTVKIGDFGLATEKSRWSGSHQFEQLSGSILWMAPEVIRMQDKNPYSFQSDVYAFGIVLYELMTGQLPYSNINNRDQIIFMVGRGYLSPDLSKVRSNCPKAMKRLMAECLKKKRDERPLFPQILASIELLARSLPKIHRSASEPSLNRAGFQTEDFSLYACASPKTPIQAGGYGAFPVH
Protocol: as §1

p21 [2] = test: Immunofluorescence staining of p21 in 786-O cells (FIG. 5); format: cell-based, human; conditions: 10 μM, 24 h, confocal microscopy
Protocol: FIG. 5. […] 786-O cells were grown to confluence on 8-well chamber slides and treated with either Compound 2288 at 10 μM concentration or vehicle (DMSO) for 24 h. Immunofluorescence staining of p21 was visualized by confocal microscopy as described in Materials and Methods. p21 is green and the nuclear dye (DAPI) is blue. The experiment shown is representative of at least 3 separate experiments.
After appropriate treatments in 8 well chamber slides. immunofluorescence was conducted as described previously.^19 Briefly, the cells were fixed in 2% paraformaldehyde and blocked in the blocking buffer. After blocking, the cells were incubated with appropriate antibody, incubated with anti-mouse or anti-rabbit IgG (H+L), F(ab′)2 Fragment (Alexa Fluor® 488 Conjugate), and coverslipped with vectashield with DAPI. The specimens were examined by confocal microscopy.

p21 [3] = test: Immunoblotting of p21 and other proteins in normal kidney and cancer cells (FIG. 2); format: cell-based, human; conditions: HK2, 786-O, Caki-1, ACHN and Hey cells, 24 h, immunoblot
Protocol: FIG. 2. […] The cells were harvested and immunoblotted with the antibodies indicated. (A) p21 and (B) p-Akt, p-ERK, t-Akt, t-ERK and p53 proteins are shown. β-actin is a loading control for each membrane. The experiment shown is representative of at least 3 separate experiments.
(§2) Immunoblotting was performed as previously described.^19 Briefly, after appropriate treatments, the cells were washed with phosphate buffered saline (PBS) and lysed in lysis buffer. Cell lysates were immunoblotted. Membranes were blocked in 5% nonfat dry milk for one hour at room temperature and probed with appropriate antibodies. Membranes were then probed with horseradish peroxidase tagged anti-mouse or anti-rabbit IgG antibodies. Signal was detected using ECL solutions.

p21 [4] = test: p21 protein stability with CHX, immunoblotting in 786-O cells (FIG. 3B); format: cell-based, human; conditions: 10 μM with CHX
Protocol: (§3) FIG. 3. […] 786-O cells were grown to confluence in 10% serum containing media and: (A) treated with Compound 2288 at 10 μM concentration or vehicle (DMSO) for the indicated time. mRNA was isolated and RT-PCR was performed as described in Materials and Methods. GAP DH is a loading control. (B) exposed to CHX (35 μM), Compound 2288 (10 μM). CHX (10 μg/ml) and Compound 2288 (10 μM), or vehicle (DMSO) for the indicated times and immunoblotting was performed with the antibodies indicated. β-actin is a loading control. The experiments shown are representative of at least 3 separate experiments.
as §2

p21 mRNA = test: Reverse transcriptase-PCR of p21 mRNA in 786-O cells (FIG. 3A); format: cell-based, human; conditions: 10 μM, RT-PCR
Protocol: as §3
Total mRNA was collected and cDNA synthesized using a Qiagen RNeasykit (Valencia, Calif.) following manufacture's protocol. The PCR primers used are 5′-[…]-3′ (p21 sense), 5′-[…]-3′ (p21 antisense), 5′-[…]-3′ (GAPDH sense), and 5′-[…]-3′ (GAPDH antisense). Reverse-transcribed cDNA was subjected to 40 cycles. Thermal cycling conditions are as follows: denaturation for 30 seconds at 94° C. annealing for 30 seconds at 56.5° C. and elongation for 1 minute at 72° C. DNA was analyzed by 2% ethidium bromide agarose gel electrophoresis.

NCI60 cell lines = test: Cell viability TCA assay in NCI60 cell lines (FIG. 4); format: cell-based, human; conditions: 48 h
Protocol: FIGS. 4A, 4B & 4C. […] TCA assay was conducted in the NCI60 cell lines treated with Compound 2288 as described in the Materials and Methods. Compound 2288 inhibited various cancer cell growth.
TCA assay was conducted by NCI Developmental Therapeutics Program. Briefly, cells were plated in 96-well plates, and after appropriate treatments, the plates are incubated for an additional 48 h at 37° C., 5% CO2. 95% air, and 100% relative humidity. The assay was terminated by the addition of cold TCA. Cells were fixed by the addition of 50 μl of cold 50% (w/v) TCA (final concentration, 10% TCA) and incubated for 60 minutes at 4° C. The plates were washed water and air dried. Sulforhodamine B (SRB) solution (100 μl) at 0.4% (w/v) in 1% acetic acid was added to each well, and plates were incubated for 10 minutes at room temperature. After staining, the plates were washed with 1% acetic acid and air dried. Bound stain was subsequently solubilized with 10 mM trizma base, and the absorbance was read on an automated plate reader at a wavelength of 515 nm.

p21 [5] = conditions: Inoue et al. (2011) Cancer Biol. Ther.; cited from earlier work

| Structure (SMILES) | p21 inhibition (p21 [1]) | also measured |
| --- | --- | --- |
| CCC(=O)N1CCC(NC(=O)NC23CC4CC(CC(C4)C2)C3)CC1 [Compound 1163] | − |  |
| O=C(NC12CC3CC(CC(C3)C1)C2)N[C@H]1CC[C@H](Oc2ccc(C(=O)O)cc2)CC1 [Compound 1471] | − |  |
| CS(=O)(=O)N1CCC(NC(=O)Nc2ccc(OC(F)(F)F)cc2)CC1 [Compound 1709] | − |  |
| O=C(Nc1ccc(OC(F)(F)F)cc1)N[C@H]1CC[C@H](Oc2ccc(C(=O)O)cc2)CC1 [Compound 1728] | − |  |
| CCC(=O)N1CCC(NC(=O)Nc2ccc(OC(F)(F)F)cc2)CC1 [Compound 1770] | − |  |
| N#Cc1ccc(O[C@H]2CC[C@H](NC(=O)Nc3ccc(Cl)c(C(F)(F)F)c3)CC2)cc1 [Compound 2182] | + |  |
| O=C(Nc1ccc(Cl)c(C(F)(F)F)c1)N[C@H]1CC[C@H](Oc2ccc(C(=O)O)cc2)CC1 [Compound 2221] | − | IC50 (Raf-1): 4300 ± 400 nM |
| CNC(=O)c1ccc(O[C@H]2CC[C@H](NC(=O)NC34CC5CC(CC(C5)C3)C4)CC2)cc1 [Compound 2225] | − |  |
| CNC(=O)c1ccc(O[C@H]2CC[C@H](NC(=O)Nc3ccc(OC(F)(F)F)cc3)CC2)cc1 [Compound 2227] | − |  |
| CNC(=O)c1ccc(O[C@H]2CC[C@H](NC(=O)Nc3ccc(Cl)c(C(F)(F)F)c3)CC2)cc1 [Compound 2253] | − | IC50 (human sEH): 0.5 nM; IC50 (Raf-1): 340 ± 40 nM; IC50 (b-Raf (V600E)): > 10000 nM |
| CNC(=O)c1cc(O[C@H]2CC[C@H](NC(=O)Nc3ccc(Cl)c(C(F)(F)F)c3)CC2)ccn1 [Compound 2278] | + |  |
| O=C(Nc1ccc(Cl)c(C(F)(F)F)c1)N[C@H]1CC[C@H](Oc2ccc(C(F)(F)F)cn2)CC1 [Compound 2288] | + | cytosolic p21 (p21 [2]): decreases cytosolic p21; levels of other proteins (p-Akt, p-ERK, t-Akt, t-ERK, p53) (p21 [3]): not levels of other proteins; p21 protein level (p21 [3]): consistently decreases p21 protein level; IC50 (human sEH): 0.5 nM; p21 protein stability (p21 [4]): no effect on p21 protein stability; p21 mRNA expression (p21 mRNA): decreases p21 mRNA expression; cancer cell growth (NCI60 cell lines): inhibits cancer cell growth |
| CNC(=O)c1ccc(OC2CCC(NC(=O)Nc3ccc(Cl)c(C(F)(F)F)c3)CC2)cn1 (stereo not shown) [Compound 2316] | + | IC50 (human sEH): 0.5 nM; IC50 (Raf-1): 175 ± 20 nM; IC50 (b-Raf (V600E)): 200 ± 150 nM |
| CNC(=O)c1cc(O[C@H]2CC[C@@H](NC(=O)Nc3ccc(Cl)c(C(F)(F)F)c3)CC2)ccn1 [Compound 2319] | + | IC50 (human sEH): 0.5 nM |
| CCN(CC)C(=O)c1cc(O[C@H]2CC[C@H](NC(=O)Nc3ccc(Cl)c(C(F)(F)F)c3)CC2)ccn1 [Compound 2574] | + |  |
| CNC(=O)c1cc(O[C@H]2CC[C@H](NC(=O)Nc3ccc(OC(F)(F)F)cc3)CC2)ccn1 [Compound 2575] | − |  |
| CNC(=O)c1cc(Oc2ccc(NC(=O)Nc3ccc(OC(F)(F)F)cc3)cc2)ccn1 [Compound 2576] | + | IC50 (human sEH): 0.5 nM; IC50 (Raf-1): 30 nM |
| CCN(CC)C(=O)c1cc(O[C@H]2CC[C@H](NC(=O)Nc3ccc(OC(F)(F)F)cc3)CC2)ccn1 [Compound 2577] | + |  |
| O=C(Nc1ccc(OC(F)(F)F)cc1)N[C@H]1CC[C@H](Oc2ccnc(C(=O)N3CCCC3)c2)CC1 [Compound 2578] | − |  |
| N#Cc1ccc(O[C@H]2CC[C@H](NC(=O)Nc3ccc(C(F)(F)F)cc3)CC2)cc1 [Compound 2579] | + |  |
| N#Cc1ccc(O[C@H]2CC[C@H](NC(=O)Nc3ccc(OC(F)(F)F)cc3)CC2)cc1 [Compound 2581] | + |  |
| CNC(=O)c1cc(Oc2ccc(NC(=O)Nc3ccc(Cl)c(C(F)(F)F)c3)cc2)ccn1 [Sorafenib, reference compound] | + | p21 inhibition (reported) (p21 [5]): potent and stable p21 inhibitor |
